Measured values: patent US9862723B2, “Stable polymorph of the salt of (2R)-4-oxo-4-[3-(trifluoromethyl)-5,6-dihydro[1,2,4]triazolo[4,3-α]pyrazin-7(8H)-yl]-1-(2,4,5-trifluorophenyl)butan-2-anime with L-tartaric acid” (ZENTIVA k.s, priority 2013, dated 2018)

Test: Relative stability of the crystalline forms of sitagliptin L-tartrate (polymorph transformation on contamination/seeding with Form Z1)
Type: physicochemical
Details: for stability of the crystalline form (polymorph) relative to the other form: comparison of WO 2005/072530 crystalline form with Form Z1 of sitagliptin L-tartrate, further experiments
From the text: When studying the properties of salts of (2R)-4-oxo-4-[3-(trifluoromethyl)-5,6-dihydro[1,2,4]triazolo[4,3-α]pyrazin-7(8H)-yl]-1-(2,4,5-trifluorophenyl)butan-2-amine (sitagliptin), a quite new polymorph (Form Z1) of the salt of (2R)-4-oxo-4-[3-(trifluoromethyl)-5,6-dihydro[1,2,4]triazolo[4,3-α]pyrazin-7(8H)-yl]-1-(2,4,5-trifluorophenyl)butan-2-amine (sitagliptin) with L-tartaric acid has been successfully obtained, characterized by the following reflections in the X-ray powder pattern: 5.9; 9.8; 14.2; 19.5; 23.8 and 26.2±0.2° 2-theta.
Preparation of the Salt of (2R)-4-oxo-4-[3-(trifluoromethyl)-5,6-dihydro[1,2,4]triazolo[4,3-α]pyrazin-7(8H)-yl]-1-(2,4,5-trifluorophenyl)butan-2-amine with L-tartaric acid (Mixture of Forms) The salt of (2R)-4-oxo-4-[3-(trifluoromethyl)-5,6-dihydro[1,2,4]triazolo[4,3-α]pyrazin-7(8H)-yl]-1-(2,4,5-trifluorophenyl)butan-2-amine (sitagliptin) with L-tartaric acid, prepared in accordance with Example 1 (according to WO 2005/072530) (2 g) was suspended in propan-2-ol (50 ml) and the suspension was heated up to 50° C. under constant agitation. The polymorph Z1 (0.1 g) prepared in accordance with Example 2 was added to the white suspension. The mixture was agitated at the same temperature for 20 minutes and after cooling to 20° C. the product was filtered off and washed with a small amount of propan-2-ol. The obtained product was dried in a vacuum drier at 40° C. 1.9 g of a mixture of forms was obtained, Form Z1 being enriched considerably.

stability of the crystalline form (polymorph) relative to the other form | transformation of the original polymorph to Form Z1 (inconsiderable contamination by Form Z1, even under the conditions in which the original crystalline form is prepared) | Compound
more stable |  | N[C@@H](CC(=O)N1CCn2c(nnc2C(F)(F)F)C1)Cc1cc(F)c(F)cc1F.O=C(O)C(O)C(O)C(=O)O [Form Z1, salt of (2R)-4-oxo-4-[3-(trifluoromethyl)-5,6-dihydro[1,2,4]triazolo[4,3-α]pyrazin-7(8H)-yl]-1-(2,4,5-trifluorophenyl)butan-2-amine (sitagliptin) with L-tartaric acid]
significantly less stable | very quick transformation | N[C@@H](CC(=O)N1CCn2c(nnc2C(F)(F)F)C1)Cc1cc(F)c(F)cc1F.O=C(O)C(O)C(O)C(=O)O [previously described crystalline form, Salt of (2R)-4-oxo-4-[3-(trifluoromethyl)-5,6-dihydro[1,2,4]triazolo[4,3-α]pyrazin-7(8H)-yl]-1-(2,4,5-trifluorophenyl)butan-2-amine with L-tartaric acid]
